Test results from patent publication US9662327B2 (AGIOS PHARMACEUTICALS, INC, priority 2011, dated 2017).

Assays:
IDH1 R132H = IDH1 R132H (Homo sapiens (Human), UniProt O75874, R132H); assay: Assays for IDH1 R132H Inhibitors (NADPH/aKG, resazurin detection); type: biochemical; details: IDH1 R132H enzyme, Table 3; read-out: R132H IC50
How it was run: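 Substrate mix held 8 uM NADPH plus 2 mM aKG; buffer was 20 mM Tris pH 7.5 with 150 mM NaCl, 10 mM MgCl2, 0.03% BSA. After 50 min room-temperature reaction, NADPH remaining was detected with 30 μM resazurin mix over 5 min.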

HT1080 cells = assay: Cellular assay for IDH1m inhibitors: inhibition of 2-HG production in HT1080 cells (LC-MS); type: cell-based
Experimental: (§1) Cells (e.g., HT1080 or U87MG) are grown in T125 flasks in DMEM containing 10% FBS, 1× penicillin/streptomycin and 500 ug/mL G418. They are harvested by trypsin and seeded into 96 well white bottom plates at a density of 5000 cell/well in 100 ul/well in DMEM with 10% FBS. No cells are plates in columns 1 and 12. Cells are incubated overnight at 37 C in 5% CO2. The next day compounds are made up at 2× concentration and 100 ul are added to each cell well. The final concentration of DMSO is 0.2% and the DMSO control wells are plated in row G. The plates are then placed in the incubator for 48 hours. At 48 hours, 100 ul of media is removed from each well and analyzed by LC-MS for 2-HG concentrations. The cell plate is placed back in the incubator for another 24 hours. At 72 hours post compound addition, 10 mL/plate of Promega Cell Titer Glo reagent is thawed and mixed. The cell plate is removed from the incubator and allowed to equilibrate to room temperature. Then 100 ul of reagent is added to each well of media. The cell plate is then placed on an orbital shaker for 10 minutes and then allowed to sit at room temperature for 20 minutes. The plate is then read for luminescence with an integration time of 500 ms.

U87R132H (U87MG) cells = assay: Cellular assay for IDH1m inhibitors: inhibition of 2-HG production in U87MG (U87R132H) cells (LC-MS); type: cell-based; details: 48 hours
Experimental: as §1

[1] = Homo sapiens, HT-1080, 48 hours

Chain of IDH1 R132H (O75874 whole entry R132H): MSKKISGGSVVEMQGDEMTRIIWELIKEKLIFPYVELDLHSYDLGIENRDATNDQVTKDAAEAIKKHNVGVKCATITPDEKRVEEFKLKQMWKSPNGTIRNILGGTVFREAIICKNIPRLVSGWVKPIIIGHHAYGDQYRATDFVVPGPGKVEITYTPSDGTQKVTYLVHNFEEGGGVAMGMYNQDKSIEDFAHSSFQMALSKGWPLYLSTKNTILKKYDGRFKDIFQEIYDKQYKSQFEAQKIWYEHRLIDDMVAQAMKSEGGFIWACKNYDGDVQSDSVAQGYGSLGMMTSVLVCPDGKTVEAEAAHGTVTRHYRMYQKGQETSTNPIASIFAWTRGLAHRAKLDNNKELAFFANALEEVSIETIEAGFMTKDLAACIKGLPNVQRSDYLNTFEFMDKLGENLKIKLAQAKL

| Compound | IC50 (IDH1 R132H) [nM] | IC50 (HT1080 cells; [1]) [nM] | IC50 (U87R132H (U87MG) cells; Homo sapiens, U-87 MG) [nM] | IC50 (HT1080 cells; 48 hours) [nM] | IC50 (U87R132H (U87MG) cells) [nM] |
| --- | --- | --- | --- | --- | --- |
| COC(=O)[C@@H]1C[C@H]1C(=O)N1CCN(c2nc(C3CC3)c3c(c2C#N)CC(C)(C)OC3)C[C@H]1C(C)C [Compound 454] | < 500 | – | – | 500 to 1000 | 500 to 1000 |
| CC(C)[C@@H]1CN(c2nc(C3CC3)c3c(c2C#N)CC(C)(C)OC3)CCN1C(=O)Cc1nnco1 [Compound 455, (R)-6-(4-(2-(1,3,4-oxadiazol-2-yl)acetyl)-3-isopropylpiperazin-1-yl)-8-cyclopropyl-3,3-dimethyl-3,4-dihydro-1H-pyrano[3,4-c]pyridine-5-carbonitrile] | 500 to 1000 | < 500 | < 500 | – | – |
| CCOC(=O)CCC(=O)N1CCN(c2nc(C3CC3)c3c(c2C#N)CC(C)(C)OC3)C[C@H]1C(C)C [Compound 456, (R)-ethyl-4-(4-(5-cyano-8-cyclopropyl-3,3-dimethyl-3,4-dihydro-1H-pyrano[3,4-c]pyridin-6-yl)-2-isopropylpiperazin-1-yl)-4-oxobutanoate] | < 500 | 500 to 1000 | < 500 | – | – |
| CC1(C)Cc2c(C#N)c(N3CCN(C(=O)C4CC4)[C@H](C4CC4)C3)nc(C3CC3)c2CO1 [Compound 461, (R)-6-(4-(cyclopropanecarbonyl)-3-cyclopropylpiperazin-1-yl)-8-cyclopropyl-3,3-dimethyl-3,4-dihydro-1H-pyrano[3,4-c]pyridine-5-carbonitrile] | < 500 | 500 to 1000 | < 500 | – | – |
| CC1(C)Cc2c(C#N)c(N3CCN(C(=O)C4CC4)C(C(F)F)C3)nc(C3CC3)c2CO1 (stereo not drawn) [Compound 463, 6-(4-(cyclopropanecarbonyl)-3-(difluoromethyl)piperazin-1-yl)-8-cyclopropyl-3,3-dimethyl-3,4-dihydro-1H-pyrano[3,4-c]pyridine-5-carbonitrile] | 500 to 1000 | 1000 to 10000 | 1000 to 10000 | – | – |
| CCOC(=O)[C@@H]1C[C@H]1C(=O)N1CCN(c2nc(C3CC3)c3c(c2C#N)CC(C)(C)OC3)C[C@H]1C(C)C [Compound 465, (1R,2R)-ethyl 2-((R)-4-(5-cyano-8-cyclopropyl-3,3-dimethyl-3,4-dihydro-1H-pyrano[3,4-c]pyridin-6-yl)-2-isopropylpiperazine-1-carbonyl)cyclopropanecarboxylate] | < 500 | 500 to 1000 | < 500 | – | – |
| CC(C)[C@@H]1CN(c2nc(C3CC3)c3c(c2C#N)CC(C)(C)OC3)CCN1C(=O)CC1CCO1 (stereo partly drawn) [Compound 473, 8-cyclopropyl-6-((3R)-3-isopropyl-4-(2-(oxetan-2-yl)acetyl)piperazin-1-yl)-3,3-dimethyl-3,4-dihydro-1H-pyrano[3,4-c]pyridine-5-carbonitrile] | < 500 | < 500 | 500 to 1000 | – | – |

Second part, led by results:

| IC50 (IDH1 R132H) [nM] | IC50 (HT1080 cells; [1]) [nM] | IC50 (U87R132H (U87MG) cells; Homo sapiens, U-87 MG) [nM] | Compound | IC50 (HT1080 cells; 48 hours) [nM] | IC50 (U87R132H (U87MG) cells) [nM] |
| --- | --- | --- | --- | --- | --- |
| < 500 | 500 to 1000 | 500 to 1000 | CC(C)OC(=O)CCC(=O)N1CCN(c2nc(C3CC3)c3c(c2C#N)CC(C)(C)OC3)C[C@H]1C(C)C [Compound 457, (R)-isopropyl 4-(4-(5-cyano-8-cyclopropyl-3,3-dimethyl-3,4-dihydro-1H-pyrano[3,4-c]pyridin-6-yl)-2-isopropylpiperazin-1-yl)-4-oxobutanoate] | – | – |
| < 500 | < 500 | < 500 | CC1(C)Cc2c(C#N)c(N3CCN(C(=O)CCO)[C@H](C4CC4)C3)nc(C3CC3)c2CO1 [Compound 460, (R)-8-cyclopropyl-6-(3-cyclopropyl-4-(3-hydroxypropanoyl)piperazin-1-yl)-3,3-dimethyl-3,4-dihydro-1H-pyrano[3,4-c]pyridine-5-carbonitrile] | – | – |
| < 500 | 500 to 1000 | 500 to 1000 | CC(C)[C@@H]1CN(c2nc(C3CC3)c3c(c2C#N)CC(C)(C)OC3)CCN1C(=O)[C@@H]1C[C@H]1CO [Compound 462, 8-Cyclopropyl-6-((R)-4-((1R,2R)-2-(hydroxymethyl)cyclopropanecarbonyl)-3-isopropylpiperazin-1-yl)-3,3-dimethyl-3,4-dihydro-1H-pyrano[3,4-c]pyridine-5-carbonitrile] | – | – |
| < 500 | 1000 to 10000 | 1000 to 10000 | COCCC(=O)N1CCN(c2nc(C3CC3)c3c(c2C#N)CC(C)(C)OC3)CC1CC(F)(F)F (stereo not drawn) [Compound 469, 8-cyclopropyl-6-(4-(3-methoxypropanoyl)-3-(2,2,2-trifluoroethyl)piperazin-1-yl)-3,3-dimethyl-3,4-dihydro-1H-pyrano[3,4-c]pyridine-5-carbonitrile] | – | – |
